Measurements taken from ChEMBL document CHEMBL1145122, “Structure-based design of novel guanidine/benzamidine mimics: potent and orally bioavailable factor Xa inhibitors as novel anticoagulants” (J Med Chem, 2003).

Columns and labels:
in vivo [1] = conditions: dog, po
in vivo [2] = conditions: dog
in vivo [3] = conditions: dog, po; remark: listed apart in the source
physchem [4] = test: physchem
Trypsin = Trypsin (Homo sapiens, UniProt P07477+P07478+P35030); test: Inhibition of Trypsin; assay type: protein assay
in vivo [5] = conditions: dog, iv
Prothrombin = Prothrombin (Homo sapiens, UniProt P00734); test: Inhibitory activity against Thrombin
physchem [6] = conditions: octanol/water
Coagulation factor X = Coagulation factor X (Homo sapiens, UniProt P00742); test: Inhibitory activity against Coagulation factor X (FXa)
Chain of Coagulation factor X (P00742 41-179 limits assumed): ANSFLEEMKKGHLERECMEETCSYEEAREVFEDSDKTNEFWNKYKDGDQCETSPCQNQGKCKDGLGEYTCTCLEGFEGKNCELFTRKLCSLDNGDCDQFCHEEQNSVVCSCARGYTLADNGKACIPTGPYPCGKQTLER
Chain of Coagulation factor X (P00742 235-488 limits assumed): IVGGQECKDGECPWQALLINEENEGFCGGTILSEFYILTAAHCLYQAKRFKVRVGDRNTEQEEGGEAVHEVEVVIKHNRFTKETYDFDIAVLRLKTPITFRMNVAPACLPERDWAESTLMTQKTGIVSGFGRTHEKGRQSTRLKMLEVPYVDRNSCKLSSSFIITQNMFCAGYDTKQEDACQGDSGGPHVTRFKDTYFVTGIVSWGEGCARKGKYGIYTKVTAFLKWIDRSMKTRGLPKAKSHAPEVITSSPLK

physchem [7] = conditions: octanol/water; remark: listed apart in the source
in vivo [8] = conditions: dog; remark: listed apart in the source
in vivo [9] = conditions: dog, po; remark: listed apart in the source
[10] = system: plasma protein binding (Homo sapiens); test: Percentage binding to human plasma proteins
Oryctolagus cuniculus [11] = organism: Oryctolagus cuniculus; test: Dose required for inhibition of thrombus formation in rabbit arterial-venous shunt antithrombosis model; assay type: functional
Oryctolagus cuniculus [12] = organism: Oryctolagus cuniculus; test: Concentration required for inhibition of thrombus formation in rabbit arterial-venous shunt antithrombosis model; assay type: functional, organism-based

Row | SMILES | pKa (physchem [4]) | Ki (Trypsin) | Ki (Prothrombin) | Ki (Coagulation factor X) | further results
1 | Cc1cc(C(=O)Nc2ccc(-c3ccccc3S(N)(=O)=O)cc2)n(-c2cccc(C(N)=O)c2)n1 | < 0 | > 1600 nM | > 21000 nM | – | half-life (in vivo [1]): 3.9 h; clearance (in vivo [2]): 4.67 mL/min/kg; bioavailability (in vivo [3]): 46%; half-life (in vivo [5]): 3.1 h; logP (physchem [6]): 2.1
2 | Cc1cc(C(=O)Nc2ccc(-c3ccccc3S(N)(=O)=O)cc2)n(-c2ccccc2N)n1 | 4.7 | – | > 21000 nM | 600 nM | –
3 | Cc1cc(C(=O)Nc2ccc(-c3ccccc3S(N)(=O)=O)cc2)n(-c2ccc(N)nc2)n1 | 7 | – | > 2100 nM | 1300 nM | –
4 | Cc1cc(C(=O)Nc2ccc(-c3ccccc3S(N)(=O)=O)cc2)n(-c2cccc(C#N)c2)n1 | – | – | > 21000 nM | 310 nM | –
5 | Cc1cc(C(=O)Nc2ccc(-c3ccccc3S(N)(=O)=O)cc2)n(-c2ccc3nc(N)nc(N)c3c2)n1 | 8.1 | > 1600 nM | > 21000 nM | 16 nM | –
6 | Cc1cc(C(=O)Nc2ccc(-c3ccccc3S(N)(=O)=O)cc2)n(-c2ccc3ccncc3c2)n1 | 5.4 | > 1600 nM | > 21000 nM | 370 nM | –
7 | Cc1cc(C(=O)Nc2ccc(-c3ccccc3S(N)(=O)=O)cc2)n(-c2cccc(N)c2)n1 | 4.7 | > 1600 nM | > 21000 nM | 63 nM | –
8 | Cc1cc(C(=O)Nc2ccc(-c3ccccc3S(N)(=O)=O)cc2)n(-c2ccc3ncnc(N)c3c2)n1 | 5.7 | > 1600 nM | > 21000 nM | 29 nM | –
9 | Cc1cc(C(=O)Nc2ccc(-c3ccccc3S(N)(=O)=O)cc2)n(-c2ccc3c(N)[nH]nc3c2)n1 | – | > 1600 nM | > 21000 nM | 2800 nM | –
10 | Cc1cc(C(=O)Nc2ccc(-c3ccccc3S(N)(=O)=O)cc2)n(-c2ccc3onc(N)c3c2)n1 | < 2.3 | > 1600 nM | > 21000 nM | 1.4 nM | half-life (in vivo [1]): 3.2 h; clearance (in vivo [2]): 5 mL/min/kg; bioavailability (in vivo [3]): 26%; half-life (in vivo [5]): 2.8 h; logP (physchem [7]): 2.3; Vd (in vivo [8]): 0.7 L/kg
11 | Cc1cc(C(=O)Nc2ccc(-c3ccccc3S(N)(=O)=O)cc2)n(-c2ccccc2)n1 | – | > 1600 nM | > 21000 nM | 198 nM | –
12 | Cc1cc(C(=O)Nc2ccc(-c3ccccc3S(N)(=O)=O)cc2)n(C2CCCNC2)n1 (stereo unspecified) | 10 | – | > 21000 nM | – | –
13 | Cc1cc(C(=O)Nc2ccc(-c3ccccc3S(N)(=O)=O)cc2)n(-c2cccc(S(C)=N)c2)n1 (stereo unspecified) | – | – | > 21000 nM | 2700 nM | –
14 | Cc1cc(C(=O)Nc2ccc(-c3ccccc3S(N)(=O)=O)cc2)n(CCCCN)n1 | 10 | – | > 21000 nM | 12000 nM | –
15 | Cc1cc(C(=O)Nc2ccc(-c3ccccc3S(N)(=O)=O)cc2)n(-c2cccc(S(N)(=O)=O)c2)n1 | – | – | > 21000 nM | 5000 nM | –
16 | Cc1cc(C(=O)Nc2ccc(-c3ccccc3S(N)(=O)=O)cc2)n(-c2cccc(CN)c2)n1 | – | – | > 21000 nM | – | –
17 | Cc1cc(C(=O)Nc2ccc(-c3ccccc3S(N)(=O)=O)cc2)n(-c2ccc3[nH]nc(N)c3c2)n1 | – | – | > 21000 nM | 29 nM | –
18 | Cc1cc(C(=O)Nc2ccc(-c3ccccc3S(N)(=O)=O)cc2)n(-c2cccc(B(O)O)c2)n1 | – | > 1600 nM | > 21000 nM | 61 nM | –
19 | Cc1cc(C(=O)Nc2ccc(-c3ccccc3S(N)(=O)=O)cc2)n(-c2ccc3ccnc(N)c3c2)n1 | 6.7 | 2600 nM | 6500 nM | 0.33 nM | half-life (in vivo [1]): 4.4 h; clearance (in vivo [2]): 5.5 mL/min/kg; bioavailability (in vivo [9]): 13%; half-life (in vivo [5]): 3.4 h; Binding [10]: 89%; logP (physchem [6]): 2.6; ID50 (Oryctolagus cuniculus [11]): 1.2 µM/h/kg; IC50 (Oryctolagus cuniculus [12]): 690 nM; Vd (in vivo [8]): 1.2 L/kg
20 | Cc1cc(C(=O)Nc2ccc(-c3ccccc3S(N)(=O)=O)cc2)n(-c2cccc(Cl)c2)n1 | – | > 1600 nM | > 21000 nM | 37 nM | –
21 | Cc1cc(C(=O)Nc2ccc(-c3ccccc3S(N)(=O)=O)cc2)n(-c2cccc(C(=N)NO)c2)n1 | 7 | > 1600 nM | > 21000 nM | 19 nM | –
22 | COc1ccc(-n2nc(C)cc2C(=O)Nc2ccc(-c3ccccc3S(N)(=O)=O)cc2)cc1 | < 0 | > 1600 nM | > 21000 nM | 11 nM | half-life (in vivo [1]): 4.5 h; clearance (in vivo [2]): 1.5 mL/min/kg; bioavailability (in vivo [3]): 48%; half-life (in vivo [5]): 4.5 h; logP (physchem [6]): 2.9; Vd (in vivo [8]): 0.52 L/kg
23 | Cc1cc(C(=O)Nc2ccc(-c3ccccc3S(N)(=O)=O)cc2)n(-c2ccc(N)cc2)n1 | 4.7 | – | > 21000 nM | 3000 nM | –
